Laboratory results taken from patent US20260200920A1, “SUBSTITUTED AMINOPYRIDINE COMPOUNDS FOR USE AS AKT1 INHIBITORS” (Atavistik Bio, Inc., priority 2023, published 2026).

What was measured:
[1] = target: T1, human recombinant kinase full-length AKT1 E17K (Homo sapiens, UniProt P31749, E17K); test: AKT1 E17K kinase assay (TR-FRET, Lance); assay type: biochemical; details: 0.6 nM AKT1 E17K, 50 nM Ulight-CREBtide, either 50 μM ATP or 2 mM ATP, 60 min at RT
T1 construct: Purified human recombinant kinase full-length AKT1 E17K was expressed in insect cells; made in house; host or cells: insect cells
How it was run: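 IC50 came from a 10-point, 4-parameter fit of the 665/620 TR-FRET ratio read with Eu-anti-phospho-CREB (Ser133). Reaction at RT for 60 min after 15 min compound preincubation, using 0.6 nM PDPK1-activated full-length AKT1 E17K (insect-cell), 50 nM Ulight-CREBtide, ATP at 50 μM or 2 mM, HEPES pH 7.5, 1% DMSO.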

[2] = target: T2, human recombinant kinase full-length wildtype AKT1 (Homo sapiens, UniProt P31749); test: AKT1 kinase assay (wildtype, TR-FRET, Lance); assay type: biochemical; details: 0.6 nM wildtype AKT1, 50 nM Ulight-CREBtide, either 50 μM ATP or 2 mM ATP, 60 min at RT
T2 construct: Purified human recombinant kinase full-length wildtype AKT1 was expressed in insect cells; made in house; host or cells: insect cells
How it was run: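 TR-FRET 665/620 ratio quantified phospho-CREBtide formed by PDPK1-activated full-length human AKT1 (0.6 nM, insect-cell-derived) over 60 min at RT with 50 nM ULight-CREBtide and either 50 μM or 2 mM ATP. Compounds were preincubated 15 min with enzyme; IC50 came from 4-parameter fits of 10-point duplicates.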

T2 sequence (P31749 whole entry): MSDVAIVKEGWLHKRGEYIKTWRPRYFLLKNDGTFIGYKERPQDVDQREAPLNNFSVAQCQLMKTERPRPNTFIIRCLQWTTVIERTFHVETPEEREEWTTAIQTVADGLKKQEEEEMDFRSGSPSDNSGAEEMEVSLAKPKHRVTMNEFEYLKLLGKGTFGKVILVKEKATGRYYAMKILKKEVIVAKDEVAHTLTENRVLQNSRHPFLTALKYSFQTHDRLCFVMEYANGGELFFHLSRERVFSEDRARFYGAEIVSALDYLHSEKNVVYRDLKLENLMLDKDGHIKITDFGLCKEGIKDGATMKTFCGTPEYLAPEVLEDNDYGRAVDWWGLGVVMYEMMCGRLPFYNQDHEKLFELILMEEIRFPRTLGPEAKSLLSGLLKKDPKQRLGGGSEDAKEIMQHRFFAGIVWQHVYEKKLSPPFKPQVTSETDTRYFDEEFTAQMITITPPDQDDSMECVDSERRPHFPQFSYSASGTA
T1 sequence (P31749 whole entry E17K): as the sequence (P31749 whole entry) above, with E17K counted along it

| SMILES | IC50 [1] [nM] | IC50 [2] [nM] |
| --- | --- | --- |
| Nc1ncccc1-c1nc2ccc(-c3ccccc3)nc2n1-c1ccc(CN2CC3(CC(C(=O)O)C3)C2)cc1 [Compound I-93, 2-(4-(2-(2-aminopyridin-3-yl)-5-phenyl-3H-imidazo[4,5-b]pyridin-3-yl)benzyl)-2-azaspiro[3.3]heptane-6-carboxylic acid] | 500 to 2000 | < 20000 |
| Nc1ncccc1-c1nc2ccc(-c3ccccc3)nc2n1-c1ccc(CN2CCC(CC(=O)O)C2)cc1 (stereo not drawn) [Compound I-94, 2-(1-(4-(2-(2-aminopyridin-3-yl)-5-phenyl-3H-imidazo[4,5-b]pyridin-3-yl)benzyl)pyrrolidin-3-yl)acetic acid] | < 500 | < 20000 |
| CN(Cc1ccc(-n2c(-c3cccnc3N)nc3ccc(-c4ccccc4)nc32)cc1)[C@H]1CC[C@@H](C(=O)O)CC1 [Compound I-95, (1s,4s)-4-((4-(2-(2-aminopyridin-3-yl)-5-phenyl-3H-imidazo[4,5-b]pyridin-3-yl)benzyl)(methyl)amino)cyclohexane-1-carboxylic acid] | < 500 | < 20000 |
| CN(Cc1ccc(-n2c(-c3cccnc3N)nc3ccc(-c4ccccc4)nc32)cc1)[C@H]1CC[C@H](C(=O)O)CC1 [Compound I-96, (1r,4r)-4-((4-(2-(2-aminopyridin-3-yl)-5-phenyl-3H-imidazo[4,5-b]pyridin-3-yl)benzyl)(methyl)amino)cyclohexane-1-carboxylic acid] | < 500 | < 20000 |
| Nc1ncccc1-c1nc2ccc(-c3ccccc3)nc2n1-c1ccc(CN2CCC(CC(=O)O)CC2)cc1 [Compound I-97, 2-(1-(4-(2-(2-aminopyridin-3-yl)-5-phenyl-3H-imidazo[4,5-b]pyridin-3-yl)benzyl)piperidin-4-yl)acetic acid] | 500 to 2000 | < 20000 |
| CC(C(=O)O)C1CCN(Cc2ccc(-n3c(-c4cccnc4N)nc4ccc(-c5ccccc5)nc43)cc2)CC1 (stereo not drawn) [Compound I-98, 2-(1-(4-(2-(2-aminopyridin-3-yl)-5-phenyl-3H-imidazo[4,5-b]pyridin-3-yl)benzyl)piperidin-4-yl)propanoic acid] | ≥ 2000 | < 20000 |
| CC1(C)CC(C(=O)O)CCN1Cc1ccc(-n2c(-c3cccnc3N)nc3ccc(-c4ccccc4)nc32)cc1 (stereo not drawn) [Compound I-99, 1-(4-(2-(2-aminopyridin-3-yl)-5-phenyl-3H-imidazo[4,5-b]pyridin-3-yl)benzyl)-2,2-dimethylpiperidine-4-carboxylic acid] | ≥ 2000 | < 20000 |
| Cc1cc(NC(=O)C2CC3(CC(C(=O)O)C3)C2)ccc1-n1c(-c2cccnc2N)nc2ccc(-c3ccccc3)nc21 (stereo not drawn) [Compound I-100, 6-((4-(2-(2-aminopyridin-3-yl)-5-phenyl-3H-imidazo[4,5-b]pyridin-3-yl)-3-methylphenyl)carbamoyl)spiro[3.3]heptane-2-carboxylic acid] | 500 to 2000 | < 20000 |
| Cc1c(-n2c(-c3cccnc3N)nc3ccc(-c4ccccc4)nc32)ccc(NC(=O)C2CC3(CC(C(=O)O)C3)C2)c1F (stereo not drawn) [Compound I-101, 6-((4-(2-(2-aminopyridin-3-yl)-5-phenyl-3H-imidazo[4,5-b]pyridin-3-yl)-2-fluoro-3-methylphenyl)carbamoyl)spiro[3.3]heptane-2-carboxylic acid] | ≥ 2000 | < 20000 |
| Cc1cc(NC(=O)[C@H]2CC[C@H](C(=O)O)CC2)ccc1-n1c(-c2cccnc2N)nc2ccc(-c3ccccc3)nc21 [Compound I-102, (1r,4r)-4-((4-(2-(2-aminopyridin-3-yl)-5-phenyl-3H-imidazo[4,5-b]pyridin-3-yl)-3-methylphenyl)carbamoyl)cyclohexane-1-carboxylic acid] | 500 to 2000 | < 20000 |
| Cc1c(-n2c(-c3cccnc3N)nc3ccc(-c4ccccc4)nc32)ccc(NC(=O)[C@H]2CC[C@H](C(=O)O)CC2)c1F [Compound I-103, (1r,4r)-4-((4-(2-(2-aminopyridin-3-yl)-5-phenyl-3H-imidazo[4,5-b]pyridin-3-yl)-2-fluoro-3-methylphenyl)carbamoyl)cyclohexane-1-carboxylic acid] | ≥ 2000 | < 20000 |
| CC(C(=O)O)C1CCN(Cc2ccc(-n3c(-c4cccnc4N)nc4ccc(-c5ccccc5)nc43)cc2)C1 (stereo not drawn) [Compound I-104, 2-[1-[[4-[2-(2-amino-3-pyridyl)-5-phenyl-imidazo[4,5-b]pyridin-3-yl]phenyl]methyl]pyrrolidin-3-yl]propanoic acid] | 500 to 2000 | < 20000 |
| CC(C)(C(=O)O)C1CCN(Cc2ccc(-n3c(-c4cccnc4N)nc4ccc(-c5ccccc5)nc43)cc2)C1 (stereo not drawn) [Compound I-105, 2-[1-[[4-[2-(2-amino-3-pyridyl)-5-phenyl-imidazo[4,5-b]pyridin-3-yl]phenyl]methyl]pyrrolidin-3-yl]-2-methyl-propanoic acid] | 500 to 2000 | < 20000 |
| Nc1ncccc1-c1nc2ccc(-c3ccccc3)nc2n1-c1ccc(NC(=O)N2CCC(C(=O)O)CC2)c(F)c1 [Compound I-106, 1-[[4-[2-(2-amino-3-pyridyl)-5-phenyl-imidazo[4,5-b]pyridin-3-yl]-2-fluoro-phenyl]carbamoyl]piperidine-4-carboxylic acid] | 500 to 2000 | < 20000 |
| Nc1ncccc1-c1nc2ccc(-c3ccccc3)nc2n1-c1ccc(N2CC3(CC(C(=O)O)C3)C2)nc1 [Compound I-107, 2-(5-(2-(2-aminopyridin-3-yl)-5-phenyl-3H-imidazo[4,5-b]pyridin-3-yl)pyridin-2-yl)-2-azaspiro[3.3]heptane-6-carboxylic acid] | ≥ 2000 | < 20000 |
| Cc1nc(NC(=O)C2CCC(C(=O)O)CC2)ccc1-n1c(-c2cccnc2N)nc2ccc(-c3ccccc3)nc21 (stereo not drawn) [Compound I-108, 4-((5-(2-(2-aminopyridin-3-yl)-5-phenyl-3H-imidazo[4,5-b]pyridin-3-yl)-6-methylpyridin-2-yl)carbamoyl)cyclohexane-1-carboxylic acid] | 500 to 2000 | < 20000 |
| Cc1nc(NC2CCC(C(=O)O)CC2)ccc1-n1c(-c2cccnc2N)nc2ccc(-c3ccccc3)nc21 (stereo not drawn) [Compound I-109, 4-((5-(2-(2-aminopyridin-3-yl)-5-phenyl-3H-imidazo[4,5-b]pyridin-3-yl)-6-methylpyridin-2-yl)amino)cyclohexane-1-carboxylic acid] | 500 to 2000 | < 20000 |
| Nc1ncccc1-c1nc2ccc(-c3ccccc3)cc2n1-c1ccc(NC(=O)C2CCC(C(=O)O)C2)nc1 (stereo not drawn) [Compound I-110, 3-((5-(2-(2-aminopyridin-3-yl)-6-phenyl-1H-benzo[d]imidazol-1-yl)pyridin-2-yl)carbamoyl)cyclopentane-1-carboxylic acid] | ≥ 2000 | < 20000 |
| Nc1ncccc1-c1nc2ccc(-c3ccccc3)cc2n1-c1ccc(NC(=O)C2CCCC(C(=O)O)C2)nc1 (stereo not drawn) [Compound I-111, 3-((5-(2-(2-aminopyridin-3-yl)-6-phenyl-1H-benzo[d]imidazol-1-yl)pyridin-2-yl)carbamoyl)cyclohexane-1-carboxylic acid] | 500 to 2000 | < 20000 |
| Nc1ncccc1-c1nc2ccc(-c3ccccc3)nc2n1-c1ccc(NC(=O)C2CC3(CC(C(=O)O)C3)C2)nc1 (stereo not drawn) [Compound I-112, 6-((5-(2-(2-aminopyridin-3-yl)-5-phenyl-3H-imidazo[4,5-b]pyridin-3-yl)pyridin-2-yl)carbamoyl)spiro[3.3]heptane-2-carboxylic acid] | < 500 | < 20000 |
| COC(=O)[C@H]1CC[C@H](C(=O)Nc2ccc(-n3c(-c4cccnc4N)nc4ccc(-c5ccccc5)nc43)cn2)CC1 [Compound I-113, methyl (1r,4r)-4-((5-(2-(2-aminopyridin-3-yl)-5-phenyl-3H-imidazo[4,5-b]pyridin-3-yl)pyridin-2-yl)carbamoyl)cyclohexane-1-carboxylate] | 500 to 2000 | < 20000 |
| Nc1ncccc1-c1nc2ccc(-c3ccccc3)nc2n1-c1ccc(NC[C@H]2CC[C@@H](C(=O)O)CC2)nc1 [Compound I-114, (1s,4s)-4-(((5-(2-(2-aminopyridin-3-yl)-5-phenyl-3H-imidazo[4,5-b]pyridin-3-yl)pyridin-2-yl)amino)methyl)cyclohexane-1-carboxylic acid] | 500 to 2000 | < 20000 |
| Nc1ncccc1-c1nc2ccc(-c3ccccc3)nc2n1-c1ccc(NC(=O)[C@H]2CC[C@H](C(N)=O)CC2)nc1 [Compound I-115, (1r,4r)-N-(5-(2-(2-aminopyridin-3-yl)-5-phenyl-3H-imidazo[4,5-b]pyridin-3-yl)pyridin-2-yl)cyclohexane-1,4-dicarboxamide] | < 500 | < 20000 |
| Cn1nccc1-c1ccc2nc(-c3cccnc3N)n(-c3ccc(NC(=O)[C@H]4CC[C@H](C(=O)O)CC4)nc3)c2n1 [Compound I-116, (1r,4r)-4-((5-(2-(2-aminopyridin-3-yl)-5-(1-methyl-1H-pyrazol-5-yl)-3H-imidazo[4,5-b]pyridin-3-yl)pyridin-2-yl)carbamoyl)cyclohexane-1-carboxylic acid] | 500 to 2000 | < 20000 |
